The results in this text go back to patent US7786299B2, “Methods for treating diseases or conditions using dihydropteridinone compounds” (Boehringer Ingelheim Pharma GmbH & Co. KG, priority 2003, dated 2010).

One assay has as its system HeLaS3 cells. The experiment in a line: Measurement of cytotoxicity on cultivated human tumour cells (AlamarBlue). Format: cell-based. To be noted: HeLa in Table 1; unit inferred. The protocol: The activity of the compounds according to the invention was determined in the cytotoxicity test on cultivated human tumour cells and/or in a FACS analysis, for example on HeLaS3 cells.
Measurement of Cytotoxicity on Cultivated Human Tumour Cells
To measure the cytotoxicity on cultivated human tumour cells, cells of the cervical cancer tumour cell line HeLaS3 (obtained from American Type Culture Collection (ATCC)) in Ham's F12 Medium (Life Technologies) and 10% foetal calf serum (Life Technologies) were cultivated and harvested in the logarithmic growth phase. Then the HeLaS3 cells were placed in 96-well plates (Costar) at a density of 1000 cells per well and incubated overnight in an incubator (at 37° C. and 5% CO2), while on each plate 6 wells were filled only with medium (3 wells as a control of the medium, 3 wells for incubation with reduced AlamarBlue). The active substances were added to the cells in various concentrations (dissolved in DMSO; final concentration: 1%) (in each case as a triple measurement). After 72 hours' incubation, 20 μl of AlamarBlue (AccuMed International) were added to each well, and the cells were incubated for a further 7 hours. As a control, 20 μl of reduced Alamar Blue (AlamarBlue reagent which had been autoclaved for 30 min) were added to 3 wells. After 7 h incubation the colour change of the AlamarBlue reagent in the individual wells was determined in a Perkin Elmer fluorescence spectrophotometer (excitation 530 nm, emission 590 nm, slits 15, integrate time 0.1). The amount of AlamarBlue reagent reacted represents the metabolic activity of the cells. The relative cell activity was calculated as a percentage of the control (HeLa S3 cells without inhibitor) and the active substance concentration which inhibits the cell activity by 50% (IC^50) was obtained. The values were calculated from the average of three individual measurements, correcting for the control value (medium control).
A general note: Alamar Blue is a resazurin reagent that responds to reducing activity.

The subject of the next assay is H460-VINC. The assay is described as follows: Cytotoxicity on H460-VINC cells (Table 1; method not given). Format: cell-based. Conditions: H460-VINC of Table 1; unit inferred.

In the case of `CCC1C(=O)N(C)c2cnc(Nc3ccc(C(=O)NCC(C)(C)CN(C)C)cc3OC)nc2N1C(C)C` (centres unmarked) [Example 57], the IC50 (as a rule, the concentration that inhibits the measured activity by half) was 38 nM in the assay on HeLaS3 cells and 67 nM with H460-VINC.
As to `CCC1C(=O)N(C)c2cnc(Nc3ccc(C(=O)NC4CCN(Cc5ccccc5)CC4)cc3OC)nc2N1C1CCCCC1` (centres unmarked) [Example 180], in the assay with H460-VINC, the IC50 worked out at 147 nM.
For `COc1cc(C(=O)NC(C)(C)CN2CCCC2)ccc1Nc1ncc2c(n1)N(CC(C)(C)C)C(C)C(=O)N2C` (centres unmarked) [Example 50], the figures for the IC50 in the assay with HeLaS3 cells and in the assay on H460-VINC were 81 nM and 436 nM, respectively.
The like results for `COc1cc(C(=O)NC2CCC(N3CCN(CC4CC4)CC3)CC2)ccc1Nc1ncc2c(n1)N(C(C)C)C(C)C(=O)N2C` (centres unmarked) [Example 112] were, in that order, 75 nM and 345 nM.
`CC[C@@H]1C(=O)N(C)c2cnc(Nc3ccc(C(=O)NCCN(CC)CC)cc3OC)nc2N1CCC(C)C` [Example 158]: the IC50 with HeLaS3 cells came to 43 nM; in the assay on H460-VINC it was 536 nM.
Take `COc1cc(C(=O)NC2CCC(N3CCOCC3)CC2)ccc1Nc1ncc2c(n1)N(CCC(C)C)C(C)C(=O)N2C` (centres unmarked) [Example 9]: the IC50 with HeLaS3 cells is 57 nM; with H460-VINC, 207 nM.
The like results for `COc1cc(C(=O)NC2CC(C)(C)N(C)C(C)(C)C2)ccc1Nc1ncc2c(n1)N(CCC(C)C)C(C)C(=O)N2C` (centres unmarked) [Example 1] were, in that order, 46 nM and 604 nM.
For the molecule `CC[C@@H]1C(=O)N(C)c2cnc(Nc3ccc(C(=O)NC(C)(C)CN(C)C)cc3OC)nc2N1C1CCCC1` [Example 177], in the assay with H460-VINC, the IC50 came to 82 nM.
With `CC[C@@H]1C(=O)N(C)c2cnc(Nc3ccc(C(=O)NCCN(CC)CC)cc3)nc2N1C(C)C` [Example 73], the IC50 in the assay with HeLaS3 cells is 91 nM.
On the same count and under the same terms, under `CCN(CC)CCNC(=O)c1ccc(Nc2ncc3c(n2)N(c2ccccc2)C(C)C(=O)N3C)c(OC)c1` (centres unmarked) [Example 59] stands 95 nM; under `CC[C@@H]1C(=O)N(C)c2cnc(Nc3ccc(C(=O)NCCN(CC)CC)cc3OC)nc2N1C(C)C` [Example 74], 43 nM.
In the assay on HeLaS3 cells, `C[C@@H]1C(=O)N(C)c2cnc(Nc3ccc(C(=O)NC4CC5CCC(C4)N5C)cc3)nc2N1C1CCCCC1` (some centres unmarked) [Example 92] registered an IC50 of 43 nM.
For the molecule `COc1cc(C(=O)NC(C)(C)CN(C)C)ccc1Nc1ncc2c(n1)N(C1CCCC1)[C@H](C)C(=O)N2C` [Example 175], the half-maximal inhibitory concentration (IC50) in the assay on H460-VINC turned out to be 296 nM.
In the assay on HeLaS3 cells, `CCC1C(=O)N(C)c2cnc(Nc3ccc(C(=O)NCCN4CCCCC4)cc3OC)nc2N1CCC(C)C` (centres unmarked) [Example 148] returned an IC50 of 87 nM.
On to `CCC1C(=O)N(C)c2cnc(Nc3ccc(C(=O)NC4CN5CCC4CC5)cc3OC)nc2N1CCC(C)C` (centres unmarked) [Example 163], for which the IC50 in the assay with HeLaS3 cells was 71 nM.
On the same count and under the same terms, under `CC[C@@H]1C(=O)N(C)c2cnc(Nc3ccc(C(=O)NCCCN4CCOCC4)cc3OC)nc2N1CCC(C)C` [Example 152] stands 81 nM; under `COc1cc(C(=O)NC2CCC(N3CCCC3)CC2)ccc1Nc1ncc2c(n1)N(C1CCCC1)C(C)C(=O)N2C` (centres unmarked) [Example 15], 20 nM.
`CC[C@@H]1C(=O)N(C)c2cnc(Nc3ccc(C(=O)NCCCN4CCCC4)cc3OC)nc2N1CCC(C)C` [Example 157]: the IC50 in the assay with HeLaS3 cells came to 51 nM.
Still for that read-out and setting: in the case of `Cc1cc(C(=O)NC2CC3CCC(C2)N3C)ccc1Nc1ncc2c(n1)N(C1CCCCC1)[C@H](C)C(=O)N2C` (some centres unmarked) [Example 95] it was 47 nM; in that of `CCN1CCC(NC(=O)c2ccc(Nc3ncc4c(n3)N(CCC(C)C)C(C)C(=O)N4C)cc2)CC1` (centres unmarked) [Example 4], 98 nM; in that of `C[C@@H]1C(=O)N(C)c2cnc(Nc3ccc(C(=O)NC4CCN(C)CC4)cc3)nc2N1C1CCCC1` [Example 79], 43 nM.
As for `COc1cc(C(=O)NC2CCC(N3CCCC3)CC2)ccc1Nc1ncc2c(n1)N(CCC(C)C)[C@H](C)C(=O)N2C` (some centres unmarked) [Example 34], the IC50 in the assay with HeLaS3 cells stood at 55 nM.
The same measure, in the same setting: under `CC(C)CCN1c2nc(Nc3ccc(C(=O)NC4CC(C)(C)N(C)C(C)(C)C4)cc3)ncc2N(C)C(=O)C1C` (centres unmarked) [Example 3] stands 61 nM; under `CC[C@@H]1C(=O)N(C)c2cnc(Nc3ccc(C(=O)NCCCN4CCOCC4)cc3)nc2N1CCC(C)C` [Example 155], 79 nM.
In the assay with HeLaS3 cells, `CC1C(=O)N(C)c2cnc(Nc3ccc(C(=O)NC4CC(C)(C)N(C)C(C)(C)C4)cc3)nc2N1CC(C)(C)C` (centres unmarked) [Example 8] had a 50% inhibitory concentration (IC50) of 63 nM.
Same read-out and setting: under `CCC1C(=O)N(C)c2cnc(Nc3ccc(C(=O)NCCN4CCCCC4)cc3)nc2N1CCC(C)C` (centres unmarked) [Example 150] stands 43 nM.
The molecule `CCC1C(=O)N(C)c2cnc(Nc3ccc(C(=O)NCCN(CC)CC)cc3OC)nc2N1CCC(C)C` (centres unmarked) [Example 149] had an IC50 in the assay on HeLaS3 cells of 85 nM.
The molecule `COc1cc(C(=O)NC2CCC(N3CCCC3)CC2)ccc1Nc1ncc2c(n1)N(C1CCCC1)[C@H](C)C(=O)N2C` (some centres unmarked) [Example 36] showed an IC50 in the assay on HeLaS3 cells of 21 nM.
In the assay with HeLaS3 cells, `COc1cc(C(=O)N[C@H]2CC[C@H](N3CCCC3)CC2)ccc1Nc1ncc2c(n1)N(CCC(C)C)[C@H](C)C(=O)N2C` [Example 35] displayed an IC50 of 88 nM.
For `CC1C(=O)N(C)c2cnc(Nc3ccc(C(=O)NCCN4CCCCC4)cc3)nc2N1C1CCCC1` (centres unmarked) [Example 70], the IC50 in the assay with HeLaS3 cells came out at 92 nM.
Same read-out and setting: under `COc1cc(C(=O)NCCN(C(C)C)C(C)C)ccc1Nc1ncc2c(n1)N(CCC(C)C)C(C)(C)C(=O)N2C` [Example 161] stands 81 nM.
As to `CCN1CC[C@@H](NC(=O)c2ccc(Nc3ncc4c(n3)N(CCC(C)C)[C@H](C)C(=O)N4C)cc2)C1` [Example 39], 75 nM corresponded to half-maximal inhibition with HeLaS3 cells (IC50).
The same measure, in the same setting: in the case of `CC[C@@H]1C(=O)N(C)c2cnc(Nc3ccc(C(=O)NCCN(C)C)cc3OC)nc2N1CCC(C)C` [Example 159] it was 29 nM.
The molecule `COc1cc(C(=O)N[C@H]2CC[C@H](N3CCCCC3)CC2)ccc1Nc1ncc2c(n1)N(CCC(C)C)[C@H](C)C(=O)N2C` [Example 29] registered an IC50 in the assay on HeLaS3 cells of 49 nM.
The molecule `CC[C@@H]1C(=O)N(C)c2cnc(Nc3ccc(C(=O)NC(C)(C)CN(C)C)cc3OC)nc2N1C(C)C` [Example 176] displayed an IC50 in the assay on H460-VINC of 301 nM.
`CCC1C(=O)N(C)c2cnc(Nc3ccc(C(=O)NC4CC5CCC(C4)N5C)cc3)nc2N1C1CCCC1` (centres unmarked) [Example 47] had an IC50 with HeLaS3 cells of 28 nM.
The same measure, in the same setting: in the case of `CC[C@@H]1C(=O)N(C)c2cnc(Nc3ccc(C(=O)NCCN4CCCCC4)cc3OC)nc2N1C(C)C` [Example 72] it was 50 nM; in that of `CN1CCC(NC(=O)c2ccc(Nc3ncc4c(n3)N(C3CCCC3)[C@H](C3CC3)C(=O)N4C)cc2)CC1` [Example 93], 60 nM; in that of `CC[C@@H]1C(=O)N(C)c2cnc(Nc3ccc(C(=O)NCCCN4CCOCC4)cc3)nc2N1CCC(C)C` [Example 154], 97 nM.
The molecule `COc1cc(C(=O)NC2CCN(Cc3ccccc3)CC2)ccc1Nc1ncc2c(n1)N(C1CCOCC1)C(C)C(=O)N2C` (centres unmarked) [Example 181] yielded an IC50 in the assay on H460-VINC of 754 nM.
With `COc1cc(C(=O)NC2CCC(N3CCCCC3)CC2)ccc1Nc1ncc2c(n1)N(C1CCCC1)C(C)C(=O)N2C` (centres unmarked) [Example 25], the IC50 with HeLaS3 cells amounted to 38 nM.
With `CC1C(=O)N(C)c2cnc(Nc3ccc(C(=O)NC4CCN(Cc5ccccc5)CC4)cc3)nc2N1CC(C)(C)C` (centres unmarked) [Example 10], inhibition in the assay on HeLaS3 cells was half-maximal at 91 nM (IC50).
Still for that read-out and setting: under `CCC1C(=O)N(C)c2cnc(Nc3ccc(C(=O)NCCCN4CCOCC4)cc3OC)nc2N1CCC(C)C` (centres unmarked) [Example 151] stands 43 nM; under `CCN(CC)CCCNC(=O)c1ccc(Nc2ncc3c(n2)N(C2CCCC2)[C@H](C)C(=O)N3C)c(OC)c1` [Example 76], 68 nM.
